Consider 30 compounds from article PMC7476584, “Lipophilicity trends upon fluorination of isopropyl, cyclopropyl and 3-oxetanyl groups” (Beilstein Journal of Organic Chemistry, 2020).

Molecules are shown by their SMILES. Several values for one entry are separate records, joined by “and”; a condition that tells them apart may be missing. Identical values can stand only once. Like-named read-outs stand apart in the source and are kept apart here.

The conditions of data set [1]: Table S1; ref Hansch, Leo, Hoekman, Exploring QSAR, 1995; cited from earlier work.
For data set [2] the following is noted: cited from earlier work.
On the set-up of data set [3]: method as in PMID 31414105, PMID 29999054. The conditions noted are these: series B, reversed-phase HPLC; cited from earlier work.
Data set [4] is described as follows: 19F NMR-based octanol/water logP determination. The conditions noted are these: for logP: n-octanol/water; for logP / logP (individual measurement): octanol/water, 25 °C, 19F NMR.
For data set [5] the following is noted: SMD implicit solvation, MN15; values taken from the literature; cited from earlier work.
A short description of data set [6]: Shake-flask lipophilicity (logP, logD7.4) of literature examples. The class given is physicochemical. The conditions noted are these: geminal dimethyl 1 to cyclopropyl 2.
The mark [7] stands for this setting: logP (average logP), triplicate.
Setting [8] is: logP (individual measurement), single experiment.
The mark [9] stands for this setting: logP average with error (standard deviation), triplicate, column Error.

As to `CCCCCCCO` [1-heptanol], the “Experimental logP for selected nonfluorinated alkanols” value in data set [1] is given as 2.72.

`CC(C)(C)CO` [2,2-dimethylpropan-1-ol]: the “Experimental logP for selected nonfluorinated alkanols” value in data set [1] is given as 1.31.

`CCCCCC(C)O` (centres unmarked) [2-heptanol]: the “Experimental logP for selected nonfluorinated alkanols” value in data set [1] is 2.31.

Turning to `CCCCC(C)O` (centres unmarked) [2-hexanol], the “Experimental logP for selected nonfluorinated alkanols” value in data set [1] was 1.76.

Consider `CCCCCCC(C)O` (centres unmarked) [2-octanol], for which the “Experimental logP for selected nonfluorinated alkanols” value in data set [1] is listed as 2.90.

As for `CCCC(O)CC` (centres unmarked) [3-hexanol], the “Experimental logP for selected nonfluorinated alkanols” value in data set [1] is listed as 1.65.

With `CC(C)C(C)O` (centres unmarked) [3-methyl-2-butanol], the “Experimental logP for selected nonfluorinated alkanols” value in data set [1] is 1.28.

Turning to `CCC(O)CC` [3-pentanol], in data set [1], the “Experimental logP for selected nonfluorinated alkanols” value is recorded as 1.21.

In the case of `CCCC(O)CCC` [4-heptanol], the “Experimental logP for selected nonfluorinated alkanols” value in data set [1] was 2.22.

For the compound `CCCCC(O)CCC` (centres unmarked) [4-octanol], in data set [1], the “Experimental logP for selected nonfluorinated alkanols” value is 2.68.

In the case of `C[C@@](CCN1Cc2cc(C#CC#C[C@H]3C[C@@H]3CO)cn2C1=O)(C(=O)NO)S(C)(=O)=O` [7a], the logD7.4 in data set [2] (pH 7.4) is reported as 1.3.

As to `C[C@@](CCN1Cc2cc(C#CC#C[C@H]3C[C@]3(F)CO)cn2C1=O)(C(=O)NO)S(C)(=O)=O` [7b], the logD7.4 in data set [2] (pH 7.4) is on record as 0.9.

With `C[C@@](CCN1Cc2cc(C#CC#C[C@@H]3C[C@H]3CO)cn2C1=O)(C(=O)NO)S(C)(=O)=O` [7c], in data set [2] (pH 7.4), the logD7.4 was 1.1.

Turning to `C[C@@](CCN1Cc2cc(C#CC#C[C@@H]3C[C@@]3(F)CO)cn2C1=O)(C(=O)NO)S(C)(=O)=O` [7d], the logD7.4 in data set [2] (pH 7.4) is recorded as 0.9.

In general, logP refers to the decadic logarithm of the partition coefficient of the neutral form, usually between octanol and water. Consider `c1ccc(C2CC2)cc1` [B1], for which the lipophilicity (logP) entry in data set [3] is “+3.40”.

Take `F[C@@H]1[C@H](F)[C@@]1(F)c1ccccc1` [B2]: in data set [3], the logP entry was “+2.56”.

Consider `FC1(F)CC1c1ccccc1` (centres unmarked) [B6], for which the lipophilicity (logP) result in data set [3] was “+2.91”.

As for `FC1(F)CC1(F)c1ccccc1` (centres unmarked) [B7], the logP entry in data set [3] is on record as “+2.94”.

In the case of `CN(C)CCCCc1ccc(C2COC2)cc1` [C1], the logD7.4 entry in data set [2] (pH 7.4) is on record as “–0.1”.

As for `CN(C)CCCCc1ccc(C2(F)COC2)cc1` [C2], in data set [2] (pH 7.4), the logD7.4 result is listed as “–0.5”.

Take `CC(C)(F)CO` [D2, 2-fluoro-2-methylpropan-1-ol]: the “Δ logP branched vs linear” value in data set [4] (D2 vs G2) was 0.16. For the same compound, the logP worked out at 0.1 in data set [4] (setting [7]), 0.11 in data set [4] (setting [8]) and 0.104 in data set [4] (setting [9]). Besides, the “logP (individual measurement)” value in data set [4] (single experiment) was “+0.10”.

Regarding `CC(CO)CF` (centres unmarked) [D3, 3-fluoro-2-methylpropan-1-ol], the log partition coefficient (logP) in the data set “physchem” (logP (average logP)) came to 0.29; in “physchem” (logP (individual measurement)) it was 0.28; in the data set “physchem” (logP average with error (standard deviation)), 0.289.

On to `CC(CO)C(F)F` (centres unmarked) [D4, 3,3-difluoro-2-methylpropan-1-ol], for which the values for the logP in data set [4] (setting [7]), in data set [4] (setting [8]) and in data set [4] (setting [9]) were 0.58, 0.583 and 0.583, respectively. The “logP (individual measurement)” value in data set [4] (single experiment) is “+0.576 and +0.589”.

Regarding `CC(CO)C(F)(F)F` (centres unmarked) [D5, 3,3,3-trifluoro-2-methylpropan-1-ol], the logP came to 0.98 in data set [4] (setting [7]), 0.977 in data set [4] (setting [8]) and 0.978 in data set [4] (setting [9]). The “logP (individual measurement)” value in data set [4] (single experiment) was “+0.978 and +0.979”.

On to `OCC1(F)CC1` [E2, (1-fluorocyclopropyl)methanol], for which, in data set [4] (G9 to E2), the logP reduction came to 0.72 logP units. Further, the logP in data set [4] (setting [7]) was -0.05; in data set [4] (setting [9]), -0.054. Further, the “logP (individual measurement)” value in data set [4] (single experiment) is given as -0.06.

On to `OCCC(F)CF` (centres unmarked) [G7, 3,4-difluorobutan-1-ol], for which, in data set [5], the “logPtheor (DFT)” value is given as 1.06.

With `OCCC(F)(F)CF` [G8], the “logPtheor (DFT)” value in data set [5] is 1.30.

Regarding `O=C(c1ccc(CN2CCOCC2)cc1)N1CCN(C2CC2)CC1` [compound 2], in data set [6], the ΔlogD7.4 result is “+0.73” and the ΔlogP result was “+0.34”.

Turning to `CN(C)CCCCc1ccc(C(C)(C)C)cc1` [compound 3], the logD7.4 in data set [2] (pH 7.4) is on record as 2.5.

For the compound `CN(C)CCCCc1ccc(C2(C)COC2)cc1` [compound 4], in data set [2] (shake-flask), the logD7.4 was -0.1 and the log partition coefficient (logP) is given as 2.4.
